# How the values were obtained:
# [1] = test system: Mycolicibacterium smegmatis; test: Antimycobacterial activity against Mycobacterium smegmatis str. MC2 155 assessed as reduction in bacterial viability incubated for 3 days by MTT assay; format: organism-based; details: 72 h
# Mycobacterium avium [2] = test: Antimycobacterial activity against Mycobacterium avium ATCC 25291 assessed as reduction in bacterial viability incubated for 3 days by MTT assay; format: organism-based; details: mycobacterium avium subsp. avium atcc 25291, 72 h
# Mycobacterium avium [3] = test: Antimycobacterial activity against Mycobacterium avium isolate MAV1 assessed as reduction in bacterial viability incubated for 3 days by MTT assay; format: organism-based; details: in vitro, 72 h
# Mycobacterium avium [4] = test: Antimycobacterial activity against Mycobacterium avium isolate MAV4 assessed as reduction in bacterial viability incubated for 3 days by MTT assay; format: organism-based; details: 72 h
# [5] = Safety index, ratio of CC50 for test compound to CC50 for thioridazine for cytotoxicity in human monocyte-derived macrophages; format: cell-based, Macrophage cell line
# [6] = Safety index, ratio of MTC for test compound to MTC for thioridazine for cytotoxicity in human monocyte-derived macrophages; format: cell-based, Macrophage cell line
# [7] = Safety index, ratio of MTC for test compound to MTC for chlorpromazine for cytotoxicity in human monocyte-derived macrophages; format: cell-based, Macrophage cell line
# Mycobacterium avium [8] = details: 72 h
# Description: Antimycobacterial activity against Mycobacterium avium 104 assessed as reduction in bacterial viability incubated for 3 days by MTT assay
# Mycobacterium avium [9] = details: in vivo, 72 h
# Description: Antimycobacterial activity against Mycobacterium avium 104 mc'2 3 assessed as reduction in bacterial viability incubated for 3 days by MTT assay
# Mycobacterium avium [10] = details: in vivo, 72 h; remark: listed apart in the source
# Description: Antimycobacterial activity against Mycobacterium avium 104 mc'2 4 assessed as reduction in bacterial viability incubated for 3 days by MTT assay
# Mycobacterium avium [11] = details: 104 mc'2 3
# Mycobacterium avium [12] = details: 104 mc'2 3; remark: listed apart in the source
# Mycobacterium avium [13] = details: isolate MAV2
# Description: Inhibition of multidrug resistance efflux pump in Mycobacterium avium isolate MAV2 assessed as potentiation of clarithromycin -induced antibacterial activity by measuring clarithromycin MIC at 1/2 MIC incubated for 3 days by MTT assay (Rvb = >1024 ug/ml)
# Mycobacterium avium [14] = details: isolate MAV4
# Description: Inhibition of multidrug resistance efflux pump in Mycobacterium avium isolate MAV4 assessed as potentiation of clarithromycin -induced antibacterial activity by measuring clarithromycin MIC at 1/2 MIC incubated for 3 days by MTT assay
# Mycobacterium avium [15] = details: 104
# Mycobacterium avium [16] = details: 104 mc'2 3; remark: listed apart in the source
# Mycobacterium avium [17] = details: isolate MAV1
# Mycobacterium avium [18] = details: isolate MAV3
# Mycobacterium avium [19] = details: 104 mc'2 3; remark: listed apart in the source
# Mycobacterium avium [20] = details: 104 mc'2 3; remark: listed apart in the source
# Mycobacterium avium [21] = details: isolate MAV1; remark: listed apart in the source
# Mycobacterium avium [22] = details: isolate MAV2; remark: listed apart in the source
# Mycobacterium avium [23] = details: isolate MAV2; remark: listed apart in the source
# Mycobacterium avium [24] = details: isolate MAV4; remark: listed apart in the source
# [25] = test system: Mycobacterium avium subsp. avium ATCC 25291
# Mycobacterium avium [26] = details: 104 mc'2 3; remark: listed apart in the source
# Mycobacterium avium [27] = details: isolate MAV1; remark: listed apart in the source
# Description: Inhibition of multidrug resistance efflux pump in Mycobacterium avium isolate MAV1 assessed as potentiation of ciprofloxacin-induced antibacterial activity by measuring ciprofloxacin MIC at 1/4 MIC incubated for 3 days by MTT assay
# Mycobacterium avium [28] = details: isolate MAV2; remark: listed apart in the source
# Mycobacterium avium [29] = details: isolate MAV3; remark: listed apart in the source
# Mycobacterium avium [30] = details: 104; remark: listed apart in the source
# Mycobacterium avium [31] = details: 104 mc'2 4
# Mycobacterium avium [32] = details: isolate MAV1; remark: listed apart in the source
# Description: Inhibition of multidrug resistance efflux pump in Mycobacterium avium isolate MAV1 assessed as potentiation of ofloxacin-induced antibacterial activity by measuring ofloxacin MIC at 1/4 MIC incubated for 3 days by MTT assay (Rvb = 4 ug/ml)
# Mycobacterium avium [33] = details: isolate MAV2; remark: listed apart in the source
# Description: Inhibition of multidrug resistance efflux pump in Mycobacterium avium isolate MAV2 assessed as potentiation of ofloxacin-induced antibacterial activity by measuring ofloxacin MIC at 1/4 MIC incubated for 3 days by MTT assay
# Mycobacterium avium [34] = details: isolate MAV4; remark: listed apart in the source
# [35] = test system: Mycobacterium avium subsp. avium ATCC 25291; remark: listed apart in the source
# [36] = test system: Mycobacterium avium subsp. avium ATCC 25291; remark: listed apart in the source
# Mycobacterium avium [37] = details: 104 mc'2 3; remark: listed apart in the source
# Mycobacterium avium [38] = details: 104 mc'2 4; remark: listed apart in the source
# Mycobacterium avium [39] = details: 104 mc'2 4; remark: listed apart in the source
# Mycobacterium avium [40] = details: isolate MAV3; remark: listed apart in the source
# Mycobacterium avium [41] = details: isolate MAV4; remark: listed apart in the source
# [42] = test system: Mycobacterium avium subsp. avium ATCC 25291; remark: listed apart in the source
# Description: Inhibition of multidrug resistance efflux pump in Mycobacterium avium ATCC 25291 assessed as potentiation of ethidium bromide-induced antibacterial activity by measuring ethidium bromide MIC at 1/4 MIC incubated for 3 days by MTT assay
compound,measurement,setting,value
CCCOc1ccc(-c2cn(CCN3CCCCCC3)c3ccccc3c2=O)cc1,MIC,[1],128 µg/mL
same,MIC,Mycobacterium avium [2],256 µg/mL
same,MIC,Mycobacterium avium [3],128 µg/mL
same,MIC,Mycobacterium avium [4],256 µg/mL
same,selectivity ratio,[5],4 to 6
same,selectivity ratio,[6],4 to 6
same,selectivity ratio,[7],2 to 4
same,MIC,Mycobacterium avium [8],256 µg/mL
same,MIC,Mycobacterium avium [9],256 µg/mL
same,MIC,Mycobacterium avium [10],256 µg/mL
same,MIC,Mycobacterium avium [11],< 4 µg/mL
same,MIC,Mycobacterium avium [12],32 µg/mL
same,MIC,Mycobacterium avium [13],< 4 µg/mL
same,MIC,Mycobacterium avium [14],< 0.0625 µg/mL
same,MIC,Mycobacterium avium [15],< 4 µg/mL
same,MIC,Mycobacterium avium [16],128 µg/mL
same,MIC,Mycobacterium avium [17],< 4 µg/mL
same,MIC,Mycobacterium avium [18],32 µg/mL
same,MIC,Mycobacterium avium [19],< 4 µg/mL
same,MIC,Mycobacterium avium [20],< 64 µg/mL
same,MIC,Mycobacterium avium [21],< 4 µg/mL
same,MIC,Mycobacterium avium [22],< 4 µg/mL
same,MIC,Mycobacterium avium [23],256 µg/mL
same,MIC,Mycobacterium avium [24],< 2 µg/mL
same,MIC,[25],8 µg/mL
same,MIC,Mycobacterium avium [26],< 0.125 µg/mL
same,MIC,Mycobacterium avium [27],0.5 µg/mL
same,MIC,Mycobacterium avium [28],1 µg/mL
same,MIC,Mycobacterium avium [29],0.5 µg/mL
same,MIC,Mycobacterium avium [30],4 µg/mL
same,MIC,Mycobacterium avium [31],2 µg/mL
same,MIC,Mycobacterium avium [32],2 µg/mL
same,MIC,Mycobacterium avium [33],2 µg/mL
same,MIC,Mycobacterium avium [34],< 0.125 µg/mL
same,MIC,[35],< 0.5 µg/mL
same,MIC,[36],8 µg/mL
same,MIC,Mycobacterium avium [37],< 0.195 µg/mL
same,MIC,Mycobacterium avium [38],< 0.195 µg/mL
same,MIC,Mycobacterium avium [39],0.39 µg/mL
same,MIC,Mycobacterium avium [40],12.5 µg/mL
same,MIC,Mycobacterium avium [41],< 0.39 µg/mL
same,MIC,[42],6.25 µg/mL
CSc1ccc2c(c1)N(CCC1CCCCN1C)c1ccccc1S2 (stereo not drawn) [THIORIDAZINE],MIC,[1],30 µg/mL
same,MIC,Mycobacterium avium [2],30 µg/mL
same,MIC,Mycobacterium avium [3],30 µg/mL
same,MIC,Mycobacterium avium [4],30 µg/mL
same,MIC,Mycobacterium avium [8],30 µg/mL
same,MIC,Mycobacterium avium [9],30 µg/mL
same,MIC,Mycobacterium avium [10],30 µg/mL
same,MIC,Mycobacterium avium [11],< 4 µg/mL
same,MIC,Mycobacterium avium [12],> 512 µg/mL
same,MIC,Mycobacterium avium [13],256 µg/mL
same,MIC,Mycobacterium avium [14],1 µg/mL
same,MIC,Mycobacterium avium [15],32 µg/mL
same,MIC,Mycobacterium avium [16],> 512 µg/mL
same,MIC,Mycobacterium avium [17],< 4 µg/mL
same,MIC,Mycobacterium avium [18],128 µg/mL
same,MIC,Mycobacterium avium [19],< 4 µg/mL
same,MIC,Mycobacterium avium [20],> 512 µg/mL
same,MIC,Mycobacterium avium [21],16 µg/mL
same,MIC,Mycobacterium avium [22],128 µg/mL
same,MIC,Mycobacterium avium [23],> 512 µg/mL
same,MIC,Mycobacterium avium [24],64 µg/mL
same,MIC,[25],32 µg/mL
same,MIC,Mycobacterium avium [26],< 0.125 µg/mL
same,MIC,Mycobacterium avium [27],0.5 µg/mL
same,MIC,Mycobacterium avium [28],0.25 µg/mL
same,MIC,Mycobacterium avium [29],2 µg/mL
same,MIC,Mycobacterium avium [30],4 µg/mL
same,MIC,Mycobacterium avium [31],8 µg/mL
same,MIC,Mycobacterium avium [32],1 µg/mL
same,MIC,Mycobacterium avium [33],1 µg/mL
same,MIC,Mycobacterium avium [34],4 µg/mL
same,MIC,[35],4 µg/mL
same,MIC,[36],16 µg/mL
same,MIC,Mycobacterium avium [37],1.56 µg/mL
same,MIC,Mycobacterium avium [38],0.78 µg/mL
same,MIC,Mycobacterium avium [39],12.5 µg/mL
same,MIC,Mycobacterium avium [40],12.5 µg/mL
same,MIC,Mycobacterium avium [41],12.5 µg/mL
same,MIC,[42],25 µg/mL
CCCOc1ccc(-c2cn(CCN3CCCCC3)c3ccccc3c2=O)cc1,MIC,[1],256 µg/mL
same,MIC,Mycobacterium avium [2],256 µg/mL
same,MIC,Mycobacterium avium [3],128 µg/mL
same,MIC,Mycobacterium avium [4],256 µg/mL
same,selectivity ratio,[5],4 to 6
same,selectivity ratio,[6],4 to 6
same,selectivity ratio,[7],2 to 4
same,MIC,Mycobacterium avium [8],> 256 µg/mL
same,MIC,Mycobacterium avium [9],256 µg/mL
same,MIC,Mycobacterium avium [10],256 µg/mL
same,MIC,Mycobacterium avium [11],< 4 µg/mL
same,MIC,Mycobacterium avium [12],256 µg/mL
same,MIC,Mycobacterium avium [13],256 µg/mL
same,MIC,Mycobacterium avium [14],< 0.0625 µg/mL
same,MIC,Mycobacterium avium [15],< 0.125 µg/mL
same,MIC,Mycobacterium avium [16],128 µg/mL
same,MIC,Mycobacterium avium [17],< 4 µg/mL
same,MIC,Mycobacterium avium [18],64 µg/mL
same,MIC,Mycobacterium avium [19],< 4 µg/mL
same,MIC,Mycobacterium avium [20],512 µg/mL
same,MIC,Mycobacterium avium [21],< 4 µg/mL
same,MIC,Mycobacterium avium [22],256 µg/mL
same,MIC,Mycobacterium avium [23],512 µg/mL
same,MIC,Mycobacterium avium [24],< 4 µg/mL
same,MIC,[25],8 µg/mL
same,MIC,Mycobacterium avium [26],< 0.125 µg/mL
same,MIC,Mycobacterium avium [27],2 µg/mL
same,MIC,Mycobacterium avium [28],1 µg/mL
same,MIC,Mycobacterium avium [29],1 µg/mL
same,MIC,Mycobacterium avium [30],< 0.125 µg/mL
same,MIC,Mycobacterium avium [31],4 µg/mL
same,MIC,Mycobacterium avium [32],1 µg/mL
same,MIC,Mycobacterium avium [33],4 µg/mL
same,MIC,Mycobacterium avium [34],< 0.125 µg/mL
same,MIC,[35],< 0.5 µg/mL
same,MIC,[36],8 µg/mL
same,MIC,Mycobacterium avium [37],< 0.195 µg/mL
same,MIC,Mycobacterium avium [38],< 0.195 µg/mL
same,MIC,Mycobacterium avium [39],3.12 µg/mL
same,MIC,Mycobacterium avium [40],12.5 µg/mL
same,MIC,Mycobacterium avium [41],< 0.39 µg/mL
same,MIC,[42],12.5 µg/mL
